A short description of data set [1]: water solubility of tebufelone. In kind it is physicochemical. The settings on record: water (essentially water-insoluble).
Data set [2] can be described thus: absorption from the gastrointestinal tract after peroral dosing. The data set is classed as in vivo. The settings on record: dosed in conventional solid dosage forms, such as tablets or powders in capsules.

Structures are written as SMILES.

For the compound `C#CCCCC(=O)c1cc(C(C)(C)C)c(O)c(C(C)(C)C)c1` [tebufelone, 1-[3,5-bis(1,1-dimethylethyl)-4-hydroxyphenyl]-5-hexyn-1-one], the solubility (in general, how much of the substance goes into solution per volume) in data set [1] is < 1 µg/mL. For the same compound, in data set [2], the “absorption of tebufelone from the gastrointestinal tract” value is listed as “quite low”.

Source of the values: EP0431659B1, “Pharmaceutical compositions of tebufelone” (THE PROCTER & GAMBLE COMPANY, priority 1989, dated 1991).
